Test results reported in US20120015907A1, “Furopyridine compounds and uses thereof” (NOVARTIS AG, priority 2010, published 2012).

Target: T1, HCV polymerase (Hepatitis C virus genotype 1b, UniProt Q9WMX2)
T1 construct: (His)6 (C)
Test: biochemical
Conditions: NS5B polymerase IC50 μM, polymerase assay of Biological Example 1

Going from `CCOP(C)(=O)CCCCN(c1nc2oc(-c3ccc(C)cc3)c(C(=O)NC)c2cc1C1CC1)S(C)(=O)=O` (stereo not shown) [Example 23.99993, ethyl 4-(N-(5-cyclopropyl-3-(methylcarbamoyl)-2-p-tolylfuro[2,3-b]pyridin-6-yl)methylsulfonamido)butyl (methyl)phosphinate] to `CCOP(C)(=O)CCCCCN(c1nc2oc(-c3ccc(CC)cc3)c(C(=O)NC)c2cc1I)S(C)(=O)=O` (stereo not shown) [Example 23.9992, ethyl 5-(N-(2-(4-ethylphenyl)-5-iodo-3-(methylcarbamoyl)furo[2,3-b]pyridin-6-yl)methylsulfonamido)pentyl (methyl)phosphinate], the IC50 rises from 0.011 µM to 0.02 µM (1.8-fold). The first is the more potent here.

Same assay, conditions: polymerase assay of Biological Example 1; read-out: NS5B polymerase IC50

`CNC(=O)c1c(-c2ccc(C)cc2)oc2nc(N(CCCC(O)C(C)(C)C(=O)O)S(C)(=O)=O)c(C3CC3)cc12` (stereo not shown) [Example 50, 6-(N-(5-cyclopropyl-3-(methylcarbamoyl)-2-p-tolylfuro[2,3-b]pyridin-6-yl)methylsulfonamido)-3-hydroxy-2,2-dimethylhexanoic acid] and `CNC(=O)c1c(-c2ccc(C)cc2)oc2nc(N(CCC[C@@H](C)C(=O)O)S(C)(=O)=O)c(C3CC3)cc12` [Example 47.3, (R)-5-(N-(5-cyclopropyl-3-(methylcarbamoyl)-2-p-tolylfuro[2,3-b]pyridin-6-yl)methylsulfonamido)-2-methylpentanoic acid] are the same in IC50: 0.003 µM for the first, 0.003 µM for the second.

Going from `CCc1cc2c(C(=O)NC)c(-c3ccc(F)cc3)oc2nc1N(CCCCS(=O)(=O)C(F)(F)F)S(C)(=O)=O` [Example 23.97, 5-ethyl-2-(4-fiuorophenyl)-N-methyl-6-(N-(4-(trifluoromethylsulfonyl)butyl)methylsulfonamido) furo[2,3-b]pyridine-3-carboxamide] to `CCc1cc2c(C(=O)NC)c(-c3ccc(F)cc3)oc2nc1N(CCCCC(=O)O)S(C)(=O)=O` [Example 21.2, 5-(N-(5-ethyl-2-(4-fluorophenyl)-3-(methylcarbamoyl)furo[2,3-b]pyridin-6-yl)methylsulfonamido)pentanoic acid], the IC50 falls from 0.035 µM to 0.012 µM (2.9-fold).

Going from `CCc1cc2c(C(=O)NC)c(-c3ccc(F)cc3)oc2nc1N(CCc1ccncc1)S(C)(=O)=O` [Example 21.996, 5-ethyl-2-(4-fluorophenyl)-N-methyl-6-(N-(2-(pyridin-4-yl)ethyl)methylsulfonamido)furo[2,3-b]pyridine-3-carboxamide] to `CCc1cc2c(C(=O)NC)c(-c3ccc(F)cc3)oc2nc1N(CCc1ccc(OC)c(OC)c1)S(C)(=O)=O` [Example 22.2, 6-(N-(3,4-dimethoxyphenethyl)methylsulfonamido)-5-ethyl-2-(4-fluorophenyl)-N-methylfuro[2,3-b]pyridine-3-carboxamide], the IC50 rises from 0.094 µM to 0.281 µM (3-fold). The first is the more potent here.

First: CCc1cc2c(C(=O)NC)c(-c3ccc(F)cc3)oc2nc1N(CCOCCOC)S(C)(=O)=O [Example 21.8, 5-ethyl-2-(4-fluorophenyl)-6-(N-(2-(2-methoxyethoxy)ethyl)methylsulfonamido)-N-methylfuro[2,3-b]pyridine-3-carboxamide]
Second: CCc1cc2c(C(=O)NC)c(-c3ccc(F)cc3)oc2nc1N(CCCC(=O)OC)S(C)(=O)=O [Example 21.1, methyl 4-(N-(5-ethyl-2-(4-fluorophenyl)-3-(methylcarbamoyl)furo[2,3-b]pyridin-6-yl)methylsulfonamido)butanoate]
The IC50 of the first is 13-fold higher: 0.688 µM for the first, 0.052 µM for the second.

First: CCc1cc2c(C(=O)NC)c(-c3ccc(F)cc3)oc2nc1N(CCCCl)S(C)(=O)=O [Example 22.997, 6-(N-(3-chloropropyl)methylsulfonamido)-5-ethyl-2-(4-fluorophenyl)-N-methylfuro[2,3-b]pyridine-3-carboximide]
Second: CCc1cc2c(C(=O)NC)c(-c3ccc(F)cc3)oc2nc1N(CCc1scnc1C)S(C)(=O)=O [Example 22, 5-ethyl-2-(4-fluorophenyl)-N-methyl-6-(N-(2-(4-methylthiazol-5-yl)ethyl)methylsulfonamido)furo[2,3-b]pyridine-3-carboxamide]
The IC50 of the first is 2-fold lower: 0.083 µM for the first, 0.169 µM for the second.

Going from `CCOC(=O)/C=C/CCCN(c1nc2oc(-c3ccc(C)cc3)c(C(=O)NC)c2cc1C1CC1)S(C)(=O)=O` [Example 44.1, (E)-ethyl 6-(N-(5-cyclopropyl-3-(methylcarbamoyl)-2-p-tolylfuro[2,3-b]pyridin-6-yl)methylsulfonamido)hex-2-enoate] to `C=CCCCN(c1nc2oc(-c3ccc(C)cc3)c(C(=O)NC)c2cc1C1CC1)S(C)(=O)=O` [Example 29.99, 5-cyclopropyl-N-methyl-6-(N-(pent-4-enyl)methylsulfonamido)-2-p-tolylfuro[2,3-b]pyridine-3-carboxamide], the IC50 rises from 0.005 µM to 0.014 µM (2.8-fold). The first is the more potent here.

`CCc1cc2c(C(=O)NC)c(-c3ccc(F)cc3)oc2nc1N(CCCN1CCN(C(=O)OC(C)(C)C)CC1)S(C)(=O)=O` [Example 21.999, tert-butyl 4-(3-(N-(5-ethyl-2-(4-fluorophenyl)-3-(methylcarbamoyl)furo[2,3-b]pyridin-6-yl)methylsulfonamido)propyl)piperazine-1-carboxylate] and `CCc1cc2c(C(=O)NC)c(-c3ccc(F)cc3)oc2nc1N(CCN1CCSCC1)S(C)(=O)=O` [Example 22.3, 5-ethyl-2-(4-fluorophenyl)-N-methyl-6-(N-(2-thiomorpholinoethyl)methylsulfonamido)furo[2,3-b]pyridine-3-carboxamide] are within 1.5-fold of each other in IC50: 0.112 µM for the first, 0.089 µM for the second.

Going from `CCc1cc2c(C(=O)NC)c(-c3ccc(F)cc3)oc2nc1N(CCCN(C)C(=O)c1ccccc1)S(C)(=O)=O` [Example 23.998, 5-ethyl-2-(4-fluorophenyl)-N-methyl-6-(N-(3-(N-methylbenzamido)propyl)methylsulfonamido)furo[2,3-b]pyridine-3-carboxamide] to `C=Cc1cc2c(C(=O)NC)c(-c3ccc(F)cc3)oc2nc1N(CCCCC(=O)O)S(C)(=O)=O` [Example 24.1, 5-(N-(2-(4-fluorophenyl)-3-(methylcarbamoyl)-5-vinylfuro[2,3-b]pyridin-6-yl)methylsulfonamido) pentanoic acid], the IC50 falls from 0.184 µM to 0.078 µM (2.4-fold).

`CNC(=O)c1c(-c2ccc(F)cc2)oc2nc(N(CCCC#N)S(C)(=O)=O)c(I)cc12` [Example 18.2, 6-(N-(3-cyanopropyl)methylsulfonamido)-2-(4-fluorophenyl)-5-iodo-N-methylfuro[2,3-b]pyridine-3-carboxamide] and `CNC(=O)c1c(-c2ccc(F)cc2)oc2nc(N(CCCC(=O)OC)S(C)(=O)=O)c(I)cc12` [Example 18.7, methyl 4-(N-(2-(4-fluorophenyl)-5-iodo-3-(methylcarbamoyl)furo[2,3-b]pyridin-6-yl)methylsulfonamido)butanoate] are within 1.5-fold of each other in IC50: 0.061 µM for the first, 0.076 µM for the second.

Compared with `CCc1cc2c(C(=O)NC)c(-c3ccc(F)cc3)oc2nc1N(CCCS(=O)(=O)N1CCCC1)S(C)(=O)=O` [Example 22.91, 5-ethyl-2-(4-fluorophenyl)-N-methyl-6-(N-(3-(pyrrolidin-1-ylsulfonyl)propyl)methylsulfonamido)furo[2,3-b]pyridine-3-carboxamide], `CCc1cc2c(C(=O)NC)c(-c3ccc(F)cc3)oc2nc1N(C(C)C)S(C)(=O)=O` [Example 22.993, 5-ethyl-2-(4-fluorophenyl)-6-(N-isopropylmethylsulfonamido)-N-methylfuro[2,3-b]pyridine-3-carboxamide] is 31-fold higher in IC50: 0.034 µM for the first, 1.06 µM for the second.

First: CNC(=O)c1c(-c2ccc(C)cc2)oc2nc(N(CCCC3(C(=O)O)CCN(C)CC3)S(C)(=O)=O)c(C3CC3)cc12 [Example 29.99993, 4-(3-(N-(5-cyclopropyl-3-(methylcarbamoyl)-2-p-tolylfuro[2,3-b]pyridin-6-yl)methylsulfonamido)propyl)-1-methylpiperidine-4-carboxylic acid]
Second: CNC(=O)c1c(-c2ccc(C)cc2)oc2nc(N(CCCC3(C(=O)O)CCC3)S(C)(=O)=O)c(C3CC3)cc12 [Example 29.1, 1-{3-[(5-Cyclopropyl-3-methylcarbamoyl-2-p-tolyl-furo[2,3-b]pyridin-6-yl)-methanesulfonyl-amino]-propyl}-cyclobutanecarboxylic acid]
The IC50 of the first is 1.5-fold higher: 0.003 µM for the first, 0.002 µM for the second.

First: CNC(=O)c1c(-c2ccc(F)cc2)oc2nc(N(C)S(C)(=O)=O)c(CCCC(=O)N3CCC[C@H]3C(=O)OC)cc12 [Example 4.1, (S)-methyl 1-(4-(2-(4-fluorophenyl)-3-(methylcarbamoyl)-6-(N-methylmethylsulfonamido)furo[2,3-b]pyridin-5-yl)butanoyl)pyrrolidine-2-carboxylate]
Second: CNC(=O)c1c(-c2ccc(F)cc2)oc2nc(N(C)S(C)(=O)=O)c(C(C)C)cc12 [Example 6.2, 2-(4-fluorophenyl)-5-isopropyl-N-methyl-6-(N-methylmethylsulfonamido)furo[2,3-b]pyridine-3-carboxamide]
The IC50 of the first is 1.9-fold higher: 0.112 µM for the first, 0.058 µM for the second.

Compared with `CNC(=O)c1c(-c2ccc(C)cc2)oc2nc(N(CCC[C@H](COC)C(=O)N3C(=O)OC[C@@H]3Cc3ccccc3)S(C)(=O)=O)c(I)cc12` [Example 47.71], `CNC(=O)c1c(-c2ccc(C)cc2)oc2nc(N(CCC[C@H](C)C(=O)OCOP(=O)(OCc3ccccc3)OCc3ccccc3)S(C)(=O)=O)c(C3CC3)cc12` [Example 49.1, (S)-((bis(benzyloxy)phosphoryl)oxy)methyl 5-(N-(5-cyclopropyl-3-(methylcarbamoyl)-2-(p-tolyl)furo[2,3-b]pyridin-6-yl)methylsulfonamido)-2-methylpentanoate] is 4.3-fold lower in IC50: 0.026 µM for the first, 0.006 µM for the second.

Compared with `CNC(=O)c1c(-c2ccc(C)cc2)oc2nc(N(CCCC(C)(OC)C(=O)O)S(C)(=O)=O)c(C3CC3)cc12` (stereo not shown) [Example 29.9992, 5-(N-(5-cyclopropyl-3-(methylcarbamoyl)-2-p-tolylfuro[2,3-b]pyridin-6-yl)methylsulfonamido)-2-methoxy-2-methylpentanoic acid], `CNC(=O)c1c(-c2ccc(C)cc2)oc2nc(N(CC(O)CCC(=O)O)S(C)(=O)=O)c(C3CC3)cc12` (stereo not shown) [Example 29.995, 5-(N-(5-cyclopropyl-3-(methylcarbamoyl)-2-p-tolylfuro[2,3-b]pyridin-6-yl)methylsulfonamido)-4-hydroxypentanoic acid] is 3.2-fold higher in IC50: 0.004 µM for the first, 0.013 µM for the second. The first is the more potent here.

`CNC(=O)c1c(-c2ccc(C)cc2)oc2nc(N(CC3CCC(=O)O3)S(C)(=O)=O)c(C3CC3)cc12` (stereo not shown) [Example 29.994, 5-cyclopropyl-N-methyl-6-(N-((5-oxotetrahydrofuran-2-yl)methyl)methylsulfonamido)-2-p-tolylfuro[2,3-b]pyridine-3-carboxamide] gave an IC50 of 0.006 µM.
